# Results taken from US11028051B2, “Tetrahydroquinoline-based bromodomain inhibitors” (St. Jude Children's Research Hospital, priority 2016, dated 2021).
# Where two headings read alike, the source gives them in different places.
# How the values were obtained:
# Assay in all cases: competitive TR-FRET assay, BET-BD with acetylated peptide ligand
# Type in all cases: binding
# BRD2-BD1 = BRD2-BD1 (Homo sapiens (Human), UniProt P25440); conditions: BRD2-BD1; Table 11 additional modifications; read-out: 2.1 EC50
# Chain of BRD2-BD1 (P25440 74-180): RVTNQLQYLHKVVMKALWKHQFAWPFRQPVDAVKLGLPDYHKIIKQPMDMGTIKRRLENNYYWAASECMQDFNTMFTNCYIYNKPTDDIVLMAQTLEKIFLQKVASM
# Experimental: (§1) Inhibitor potency was determined using a competitive TR-FRET assay as detailed herein, measuring interaction of the respective BET-BD with an acetylated peptide ligand (Table 2).
# BRD2-BD2 = BRD2-BD2 (Homo sapiens (Human), UniProt P25440); conditions: for EC50: Table 11 additional modifications; for 2.1/2.2: ratio of BRD2-BD1 EC50 to BRD2-BD2 EC50 (selectivity)
# Chain of BRD2-BD2 (P25440 344-453): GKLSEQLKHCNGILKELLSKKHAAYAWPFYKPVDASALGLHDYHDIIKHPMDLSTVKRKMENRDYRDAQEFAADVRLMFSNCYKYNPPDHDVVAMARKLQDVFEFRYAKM
# Experimental: as §1
# BRDT = BRDT (Homo sapiens, UniProt Q58F21); conditions: BRDT; Table 11 additional modifications; read-out: BRDT EC50
# Experimental: as §1
# BRD3-BD1 = BRD3-BD1 (Homo sapiens (Human), UniProt Q15059); conditions: BRD3-BD1; Table 11 additional modifications; read-out: 3.1 EC50
# Chain of BRD3-BD1 (Q15059 34-140): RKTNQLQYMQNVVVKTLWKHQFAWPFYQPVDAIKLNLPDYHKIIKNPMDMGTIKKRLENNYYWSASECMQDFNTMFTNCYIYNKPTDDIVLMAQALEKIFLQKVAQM
# Experimental: as §1
SMILES,EC50 (BRD2-BD1),"EC50 (BRD2-BD2; BRD2-BD2, read-out: 2.2 EC50)",2.1/2.2 (BRD2-BD2),EC50 (BRDT),EC50 (BRD3-BD1),"EC50 (BRD2-BD2; 2.2 EC50, BRD2-BD2)"
CC(=O)Nc1cccc(-c2ccc3c(c2)[C@H](Nc2ccc(C(C)=O)cc2)C[C@H](C)N3C(C)=O)c1 [compound 17],1.1 µM,0.07 µM,16,4.6 µM,,
CC(=O)Nc1ccc(-c2ccc3c(c2)[C@H](Nc2ccc(Cl)cc2)C[C@H](C)N3C(C)=O)cc1 [compound 48],1.9 µM,0.36 µM,5.3,5.3 µM,1.9 µM,
CC(=O)Nc1cccc(-c2ccc3c(c2)[C@H](NC2CCN(C)CC2)C[C@H](C)N3C(C)=O)c1 [compound 119],,,2.9,,,
CC(=O)Nc1cccc(-c2ccc3c(c2)[C@H](Nc2ccc(NC(=O)CO)cc2)C[C@H](C)N3C(C)=O)c1 [compound 121],,,33,,,
CC(=O)N(c1ccc(NCC2CC2)cc1)[C@@H]1C[C@H](C)N(C(C)=O)c2ccc(-c3cccc(NC(=O)OC(C)(C)C)c3)cc21 [compound 122],,,70,,,
CC(=O)Nc1cccc(-c2ccc3c(c2)[C@H](Nc2ccc(NC(=O)C4CC4)cc2)C[C@H](C)N3C(C)=O)c1 [compound 123],,,>1000,,,
CC(=O)N(c1ccc(NCCC(C)C)cc1)[C@@H]1C[C@H](C)N(C(C)=O)c2ccc(-c3cccc(NC(=O)OC(C)(C)C)c3)cc21 [compound 124],,,4.0,,,
C#CCCCC(=O)Nc1cccc(-c2ccc3c(c2)[C@H](Nc2ccc(C(=O)OC)cc2)C[C@H](C)N3C(C)=O)c1 [compound 138],4.6 µM,0.09 µM,36,8.7 µM,1.8 µM,
C#CCCNC(=O)c1ccc(N[C@@H]2C[C@H](C)N(C(C)=O)c3ccc(-c4cccc(NC(C)=O)c4)cc32)cc1 [compound 139],0.79 µM,0.23 µM,3.4,1.9 µM,0.69 µM,
CC(=O)N1c2ccc(-c3cccc(-n4cccn4)c3)cc2[C@H](Nc2ccccc2OC(F)(F)F)C[C@@H]1C [compound 140],21 µM,1.4 µM,22.9,> 82 µM,31 µM,
COC(=O)c1ccc(N[C@@H]2C[C@H](C)N(C(C)=O)c3ccc(-c4cccc(NCC5CC5)c4)cc32)cc1 [compound 141],2.5 µM,0.5 µM,0.015,5.2 µM,1.7 µM,
COC(=O)c1ccc(N[C@@H]2C[C@H](C)N(C(C)=O)c3ccc(-c4cccc(NCCC(C)C)c4)cc32)cc1 [compound 142],2.5 µM,0.23 µM,52,8.3 µM,2.5 µM,
CCCCN(CCCC)c1cccc(-c2ccc3c(c2)[C@H](Nc2ccc(C(=O)OC)cc2)C[C@H](C)N3C(C)=O)c1 [compound 143],8 µM,1.1 µM,93,34 µM,11 µM,
COC(=O)c1ccc(N[C@@H]2C[C@H](C)N(C(C)=O)c3ccc(-c4ccnn4C)cc32)cc1 [compound 144],3.8 µM,0.29 µM,7.0,15 µM,3.1 µM,
CC(=O)N1c2ccc(-c3ccnn3C)cc2[C@H](Nc2ccccc2OC(F)(F)F)C[C@@H]1C [compound 145],19 µM,0.39 µM,5.0,> 58 µM,21 µM,
CCCCN(CCCC)c1cccc(-c2ccc3c(c2)[C@H](Nc2ccccc2OC(F)(F)F)C[C@H](C)N3C(C)=O)c1 [compound 146],78 µM,9.6 µM,22,> 78 µM,> 78 µM,
COC(=O)c1ccc(N[C@@H]2C[C@H](C)N(C(C)=O)c3ccc(-c4c[nH]cn4)cc32)cc1 [compound 156],,,9.4,,,
COC(=O)c1ccc(N[C@@H]2C[C@H](C)N(C(C)=O)c3ccc(-c4cn(C)cn4)cc32)cc1 [compound 157],,,52,,,
COC(=O)c1ccc(CN(Cc2ccc(C(=O)OC)cc2)[C@@H]2C[C@H](C)N(C(C)=O)c3ccc(-c4cccc(NC(C)=O)c4)cc32)cc1 [compound 158],,,11,,,
COC(=O)c1ccc(CN[C@@H]2C[C@H](C)N(C(C)=O)c3ccc(-c4cccc(NC(C)=O)c4)cc32)cc1 [compound 159],,,2.9,,,
CC(=O)Nc1cccc(-c2ccc3c(c2)[C@H](Nc2ccc(C(=O)COC(C)=O)cc2)C[C@H](C)N3C(C)=O)c1 [compound 162],,,21,,,
CC(=O)Nc1cccc(-c2ccc3c(c2)[C@H](Nc2cccc(CN)c2)C[C@H](C)N3C(C)=O)c1 [compound 163],,,6.7,,,
COc1cccc(NC2CCN(C(C)=O)c3ccc(-c4cccc(NC(C)=O)c4)cc32)c1 (stereo not drawn) [compound 178],,,22,,,
CC(=O)N1c2ccc(-c3cccc(NCCC(F)(F)F)c3)cc2[C@H](Nc2ccc(C#N)cc2)C[C@@H]1C [compound 180],,,13,,,
CC(=O)Nc1cccc(-c2ccc3c(c2)[C@H](Nc2cccc(C(F)(F)F)c2)C[C@H](C)N3C(C)=O)c1 [compound 181],8 µM,0.17 µM,8.4,,,

SMILES,EC50 (BRD2-BD1),"EC50 (BRD2-BD2; BRD2-BD2, read-out: 2.2 EC50)",2.1/2.2 (BRD2-BD2),EC50 (BRDT),EC50 (BRD3-BD1),"EC50 (BRD2-BD2; 2.2 EC50, BRD2-BD2)"
CC(=O)N1c2ccc(-c3ccn(C)n3)cc2[C@H](Nc2ccc(C#N)cc2)C[C@@H]1C [compound 182],,,23,,,
CC(=O)N1c2ccc(-c3cccc(NCC4CCOC4)c3)cc2[C@H](Nc2ccc(C#N)cc2)C[C@@H]1C (stereo partly drawn) [compound 183],,,27,,,
CC(=O)N1c2ccc(-c3cccc(NC(=O)C(C)C)c3)cc2[C@H](Nc2ccc(C#N)cc2)C[C@@H]1C [compound 184],0.67 µM,0.11 µM,14,,,
CC(=O)N1c2ccc(-c3cccc(NC(=O)C(C)(C)C)c3)cc2[C@H](Nc2ccc(C#N)cc2)C[C@@H]1C [compound 185],1.8 µM,0.029 µM,,,,
CC(=O)Nc1cccc(-c2ccc3c(c2)[C@H](Nc2ccc(C#N)c(Cl)c2)C[C@H](C)N3C(C)=O)c1 [compound 186],2.1 µM,0.059 µM,,,,
CC(=O)Nc1cccc(-c2ccc3c(c2)[C@H](Nc2ccccc2Cl)C[C@H](C)N3C(C)=O)c1 [compound 187],8.7 µM,0.12 µM,,,,
CC(=O)Nc1cccc(-c2ccc3c(c2)[C@H](Nc2ccc4c(c2)CCNC4)C[C@H](C)N3C(C)=O)c1 [compound 188],0.11 µM,0.004 µM,,,,
COc1cc(C#N)ccc1N[C@@H]1C[C@H](C)N(C(C)=O)c2ccc(-c3cccc(NC(C)=O)c3)cc21 [compound 189],0.67 µM,0.017 µM,48,,,
CC(=O)Nc1cccc(-c2ccc3c(c2)[C@H](Nc2cc(F)c(C#N)c(F)c2)C[C@H](C)N3C(C)=O)c1 [compound 190],2.2 µM,0.12 µM,37,,,
COc1cc(N[C@@H]2C[C@H](C)N(C(C)=O)c3ccc(-c4cccc(NC(C)=O)c4)cc32)ccc1C#N [compound 191],1.2 µM,0.047 µM,26,,,
CC(=O)Nc1cccc(-c2ccc3c(c2)[C@H](Nc2ccc(C#N)c(C(F)(F)F)c2)C[C@H](C)N3C(C)=O)c1 [compound 192],4.8 µM,,6.3,,,0.052 µM
CC(=O)Nc1cccc(-c2ccc3c(c2)[C@H](Nc2ccc(C#N)c(F)c2)C[C@H](C)N3C(C)=O)c1 [compound 193],1 µM,,63,,,
CC(=O)Nc1cccc(-c2ccc3c(c2)[C@H](Nc2ccccc2C#N)C[C@H](C)N3C(C)=O)c1 [compound 194],2.2 µM,0.06 µM,35,,,
CC(=O)Nc1cccc(-c2ccc3c(c2)[C@H](Nc2ccc(C#N)c(C)c2)C[C@H](C)N3C(C)=O)c1 [compound 195],0.87 µM,0.017 µM,73,,,
CC(=O)Nc1cccc(-c2ccc3c(c2)[C@H](Nc2ccc(C#N)cc2Cl)C[C@H](C)N3C(C)=O)c1 [compound 196],2.17 µM,0.06 µM,27,,,
CC(=O)Nc1cccc(-c2ccc3c(c2)[C@H](Nc2ccccc2Cl)C[C@H](C)N3C(C)=O)c1 [compound 197],3.5 µM,0.054 µM,39,,,
CC(=O)Nc1cccc(-c2ccc3c(c2)[C@H](Nc2cccc(Cl)c2)C[C@H](C)N3C(C)=O)c1 [compound 198],3.3 µM,0.057 µM,19,,,
CC(=O)Nc1cccc(-c2ccc3c(c2)[C@H](Nc2ccc(C#N)cc2C)C[C@H](C)N3C(C)=O)c1 [compound 199],0.89 µM,0.019 µM,26,,,
CC(=O)Nc1cccc(-c2ccc3c(c2)[C@H](Nc2ccccc2C)C[C@H](C)N3C(C)=O)c1 [compound 200],2 µM,,92,,,
CC(=O)N1c2ccc(-c3cc[nH]n3)cc2[C@H](Nc2ccc(F)c(F)c2)C[C@@H]1C [compound 202],,,36,,,
CC(=O)N1c2ccc(-c3cc[nH]n3)cc2[C@H](Nc2ccccc2Cl)C[C@@H]1C [compound 203],,,51,,,
CC(=O)Nc1cccc(-c2ccc3c(c2)[C@H](Nc2ccc(F)cc2Cl)C[C@H](C)N3C(C)=O)c1 [compound 204],,,36,,,
CC(=O)N1c2ccc(-c3cccc(NC(=O)C(C)(C)C)c3)cc2[C@H](Nc2ccccc2Cl)C[C@@H]1C [compound 205],,,64,,,
CC(=O)N1c2ccc(-c3cccc(NC(=O)C(C)(C)C)c3)cc2[C@H](Nc2ccc(Cl)cc2)C[C@@H]1C [compound 206],,,57,,,
CC(=O)N1c2ccc(-c3ccn(-c4ccc(C#N)cc4)n3)cc2[C@H](Nc2ccc(C#N)cc2)C[C@@H]1C [compound 207],,,44,,,
